Measurements: paper PMC8011926 (Journal of Medicinal Chemistry, 2020)
Marks after values point to notes of the source that are not given here. Starred links: 1 amine or outer side, 2 acyl side, 3 side chain; linkers in the order of their positions; H or OH if unused. Non-standard residues stand in square brackets, D forms with d. Residues, ends and D or L forms follow the SMILES beside them. No end group written: not given here. X3 = N[C@@H](Cc1ccccc1)CN(CC(=O)[*:2])[*:1]

What was measured:
NOP receptor = assay: NOP bias factor, G protein vs β-arrestin 2 (Black–Leff operational model); settings: for bias factor (CL95%), NOP: ΔΔlog(τ/KA) G protein minus β-arrestin 2, N/OFQ(1–13)-NH2 as standard unbiased ligand, positive = toward G protein, mean of at least five experiments; for BIAS FACTOR: supplementary CSV (molecular formula strings), repeats Tables 1–7 without confidence limits
Description: The concentration–response curves of each compound were fitted to the Black–Leff operational model, described by Nagi and Pineyro[70] [drawing 3] where [A] is the agonist concentration, the maximal response of the system is given by Em, n is a fitting parameter for the slope, the affinity of the agonist is represented by the equilibrium dissociation constant of the agonist–receptor complex (KA), and the efficacy of the agonist is defined by τ. τ and KA are descriptive parameters of intrinsic efficacy and binding affinity and may be directly obtained by fitting the experimental data to the operational equation and can be expressed as “transduction coefficients” log(τ/KA). The relative efficiency of agonists producing activation of any pathways can thus be quantified with a “normalized” transduction coefficient, namely Δlog(τ/KA). Finally, the bias factors were calculated as difference between Δlog(τ/KA) values for a given agonist between the pathways (G protein and β-arrestin 2) [drawing 4]
Bias factors are expressed as the mean of at least five independent experiments, and CL95% are indicated. Biased factor is considered to be statistically different from 0 when 0 is not included in CL95%. α values have been statistically analyzed with one-way analysis of variance (ANOVA) followed by the Dunnett post hoc test for multiple comparisons; P values less than 0.05 were considered to be statistically significant.

[1] = target: T1, NOP receptor (NOP-RLuc/Gβ1-RGFP) (Homo sapiens, UniProt P41146); assay: NOP/G protein interaction, BRET assay in membranes; assay type: biochemical; settings: for NOP/G protein pEC50 (CL95%): BRET, membranes (3 μg protein) from HEK293 cells co-expressing NOP-RLuc/Gβ1-RGFP, room temperature, mean of five independent experiments in duplicate, 95% confidence limits; for NOP/G protein CR (concentration ratio): ratio between EC50 of the ligand and that of the standard agonist N/OFQ(1–13)-NH2
T1 construct: expressed in transfected cells; host or cells: HEK293 (enriched plasma membranes)
Method: (§1) For this study, human embryonic kidney (HEK293) cells, permanently co-expressing the different pairs of fusion proteins NOP-RLuc/Gβ1-RGFP and NOP-RLuc/β-arrestin 2-RGFP, and SH-SY5Y cells stably, co-expressing the different pairs of fusion proteins mu-RLuc/Gβ1-RGFP and mu-RLuc/β-arrestin 2-RGFP or delta-RLuc/Gβ1-RGFP and delta-RLuc/β-arrestin 2-RGFP, were used. Cells were prepared and cultured, as described previously.[19],[23] Cells were grown in Dulbecco’s modified Eagle’s medium (DMEM)/HAMS F12 (1:1) supplemented with 10% fetal bovine serum, penicillin G (100 units/mL), streptomycin (100 μg mL^–1), L-glutamine (2 mM), fungizone (1 μg mL^–1), geneticin (G418; 200 μg mL^–1), and hygromycin B (100 μg mL^–1) in a humidified atmosphere of 5% CO2 at 37 °C. For G protein experiments, enriched plasma membrane aliquots from transfected cells were prepared by differential centrifugation; cells were detached with phosphate buffered saline (PBS)/EDTA solution (1 mM, pH 7.4 NaOH), then, after 5 min 500g centrifugation, Dounce-homogenized (30 strokes) in cold homogenization buffer (tris(hydroxymethyl)aminomethane 5 mM, EGTA 1 mM, DTT 1 mM, pH 7.4 HCl) in the presence of sucrose (0.32 M). Three following centrifugations were performed at 10 min 1000g (4 °C), and the supernatants were kept. Two 20 min 24,000g (4 °C) subsequent centrifugations (the second in the absence of sucrose) were performed for separating enriched membranes that, after discarding the supernatant, were kept in ultrapure water at −80 °C.[67] The protein concentration in membrane preparations was determined using the QPRO-BCA kit (Cyanagen Srl, Bologna, IT) and the Ensight (PerkinElmer, Waltham, USA) in the spectrophotometer mode.
(§2) Luminescence in membranes was recorded in 96-well untreated white opaque microplates, while in whole cells, it was recorded in 96-well sterile poly-D-lysine-coated white opaque microplates (PerkinElmer, Waltham, MA, USA) using the luminometer Victor 2030 (PerkinElmer, Waltham, MA, USA). For the determination of receptor/G protein interactions, membranes (3 μg of protein) prepared from cells co-expressing NOP (or mu or delta)/RLuc and Gβ1/RGFP were added to wells in DPBS. For the determination of receptor/β-arrestin 2 interactions, cells co-expressing NOP (or mu or delta)/RLuc and β-arrestin 2/RGFP were plated 24 h before the experiment in poly-D-lysine-treated plates (100,000 cells/well). The cells were prepared for the experiment substituting the medium with PBS with MgCl2 (0.5 mM) and CaCl2 (0.9 mM). Coelenterazine at a final concentration of 5 μM was injected 15 min prior to reading the cell plate. Different concentrations of ligands in 20 μL of PBS–BSA 0.01% were added and incubated 5 min before reading luminescence. […] The BRET ratio was measured 15 min after agonist injection. All experiments were performed at room temperature.
(§3) The pharmacological terminology adopted in this paper is consistent with IUPHAR recommendations.[68] All data are expressed as the mean ± sem of five independent experiments made in duplicate. […] Ligand efficacy was expressed as intrinsic activity (α), calculated as the ratio between the Emax of the ligand and that of the standard agonist. Count per second (CPS) measured for the RGFP and RLuc light emitted using 510(10) and 460(25) filters (PerkinElmer, Waltham, MA), respectively, was used to calculate the BRET ratio. All data are expressed as the stimulated BRET ratio, that is, the ratio between CPS from RGFP and RLuc in the presence of ligands minus the BRET ratio in vehicle-treated wells. […] Concentration–response curves to agonists were fitted to the classical four-parameter logistic nonlinear regression model [drawing 1]
(§4) Curves fitting were performed using PRISM 6.0 (GraphPad Software In., San Diego, USA).

[2] = target: T2, NOP receptor (NOP-RLuc/β-arrestin 2-RGFP) (Homo sapiens, UniProt P41146); assay: NOP/β-arrestin 2 interaction, BRET assay in whole cells; assay type: cell-based; settings: for NOP/β-arrestin 2 pEC50 (CL95%): BRET, whole HEK293 cells co-expressing NOP-RLuc/β-arrestin 2-RGFP, 100,000 cells/well, room temperature, mean of five independent experiments in duplicate, 95% confidence limits; for NOP/β-arrestin 2 α ± sem (intrinsic activity): Emax of ligand / Emax of N/OFQ(1–13)-NH2, mean ± sem of five experiments in duplicate
T2 construct: expressed in transfected cells; host or cells: HEK293 (whole cells)
Method: as §1, §2, §3, §4

T1 sequence (P41146 whole entry): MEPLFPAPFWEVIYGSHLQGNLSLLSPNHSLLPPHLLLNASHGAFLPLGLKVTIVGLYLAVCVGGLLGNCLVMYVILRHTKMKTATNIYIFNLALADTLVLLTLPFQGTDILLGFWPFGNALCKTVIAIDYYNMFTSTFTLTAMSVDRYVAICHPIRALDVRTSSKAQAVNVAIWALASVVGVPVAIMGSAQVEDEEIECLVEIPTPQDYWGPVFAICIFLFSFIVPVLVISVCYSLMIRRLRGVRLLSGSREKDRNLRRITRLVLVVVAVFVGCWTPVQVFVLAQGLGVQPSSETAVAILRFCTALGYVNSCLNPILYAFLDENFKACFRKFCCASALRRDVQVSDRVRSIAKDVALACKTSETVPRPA
T2 sequence (P41146 whole entry): as above

## C[C@H](NC(=O)CNC(=O)[C@@H](NC(=O)[C@H](Cc1ccccc1)NC(=O)CNC(=O)CNC(=O)[C@@H](N)Cc1ccccc1)[C@@H](C)O)C(=O)N[C@H](CCCNC(=N)N)C(=O)N[C@@H](CCCCN)C(=O)N[C@@H](CO)C(=O)N[C@@H](C)C(=O)N[C@@H](CCCNC(=N)N)C(=O)N[C@@H](CCCCN)C(N)=O [Compound 16, [DArg^8]N/OFQ(1–13)-NH2]
NOP receptor
  bias factor (CL95%), NOP: 0.26 (−0.25–0.77)

## [DThr^5]N/OFQ(1–13)-NH2 [Compound 14]
[1]
  NOP/G protein pEC50 (CL95%): crc incomplete
[2]
  NOP/β-arrestin 2 pEC50 (CL95%): inactive

## C[C@H](NC(=O)CNC(=O)[C@@H](NC(=O)[C@H](Cc1ccccc1)NC(=O)CNC(=O)CNC(=O)[C@@H](N)Cc1ccccc1)[C@@H](C)O)C(=O)N[C@@H](CCCNC(=N)N)C(=O)N[C@@H](CCCCN)C(=O)N[C@@H](CO)C(=O)N[C@@H](C)C(=O)N[C@H](CCCNC(=N)N)C(=O)N[C@@H](CCCCN)C(N)=O [Compound 20, [DArg^12]N/OFQ(1–13)-NH2]
NOP receptor
  bias factor (CL95%), NOP: 0.26 (−0.19–0.71)

## C[C@H](NC(=O)CNC(=O)[C@@H](NC(=O)[C@H](Cc1ccccc1)NC(=O)CNC(=O)CNC(=O)[C@@H](N)Cc1ccccc1)[C@@H](C)O)C(=O)N[C@@H](CCCNC(=N)N)C(=O)N[C@@H](CCCCN)C(=O)N[C@@H](CO)C(=O)N[C@H](C)C(=O)N[C@@H](CCCNC(=N)N)C(=O)N[C@@H](CCCCN)C(N)=O [Compound 19, [DAla^11]N/OFQ(1–13)-NH2]
NOP receptor
  BIAS FACTOR: 0.14
  bias factor (CL95%), NOP: 0.14 (−0.31–0.60)

## [AC5C^7]N/OFQ-NH2 [Compound 37]
NOP receptor
  BIAS FACTOR: 0.08
  bias factor (CL95%), NOP: 0.08 (−0.41–0.58)

## C[C@H](NC(=O)CNC(=O)[C@@H](NC(=O)[C@H](Cc1ccccc1)NC(=O)CNC(=O)CNC[C@@H](N)Cc1ccccc1)[C@@H](C)O)C(=O)N[C@@H](CCCNC(=N)N)C(=O)N[C@@H](CCCCN)C(=O)N[C@@H](CO)C(=O)N[C@@H](C)C(=O)N[C@@H](CCCNC(=N)N)C(=O)N[C@@H](CCCCN)C(N)=O [Compound 30, [Phe^1ψ(CH2–NH)Gly^2]N/OFQ(1–13)-NH2] (H-[X3]GFTGARKSARK-NH2)
[2]
  NOP/β-arrestin 2 pEC50 (CL95%): Inactive

## [Cys(X)^14]N/OFQ(1-14)-NH2 [Compound 49] (chain 1 FGGFTGARKSARKC; chain 2 KKKKKK) [(Lys)6 moiety]
[1]
  NOP/G protein pEC50 (CL95%): 10.06 (9.79-10.34)
[2]
  NOP/β-arrestin 2 pEC50 (CL95%): 8.22 (8.03-8.40)

## FAGFTGARKSARK-NH2 [Compound 2, [Ala^2]N/OFQ(1–13)-NH2]
[1]
  NOP/G protein pEC50 (CL95%): 6.36 (5.89–6.83)
  NOP/G protein CR (concentration ratio): 275
[1]; Emax of ligand / Emax of N/OFQ(1–13)-NH2, mean ± sem of five experiments in duplicate
  NOP/G protein α ± sem (intrinsic activity): 0.54 ± 0.07 ^a
[2]
  NOP/β-arrestin 2 pEC50 (CL95%): inactive

## C[C@H](NC(=O)CNC(=O)[C@@H](NC(=O)[C@H](Cc1ccccc1)NC(=O)CNC(=O)CNC(=O)[C@@H](N)Cc1ccccc1)[C@@H](C)O)C(=O)N[C@@H](CCCNC(=N)N)C(=O)N[C@@H](CCCCN)C(=O)N[C@@H](CO)C(=O)N[C@@H](C)C(=O)N[C@@H](CCCNC(=N)N)C(=O)N[C@H](CCCCN)C(N)=O [Compound 21, [DLys^13]N/OFQ(1–13)-NH2]
NOP receptor
  BIAS FACTOR: 0.03
  bias factor (CL95%), NOP: 0.03 (−0.42–0.48)

## [AC5C^11]N/OFQ-NH2 [Compound 38]
NOP receptor
  BIAS FACTOR: 0.31
  bias factor (CL95%), NOP: 0.31 (−0.19–0.81)

## FGGWTGARKSARK-NH2 [Compound 24, [Trp^4]N/OFQ(1–13)-NH2]
[2]
  NOP/β-arrestin 2 α ± sem (intrinsic activity): 0.77 ± 0.03 ^a
NOP receptor
  BIAS FACTOR: 0.11
  bias factor (CL95%), NOP: 0.11 (−0.43–0.65)

## [Aib^11]N/OFQ-NH2 [Compound 35]
NOP receptor
  BIAS FACTOR: 0.29
  bias factor (CL95%), NOP: 0.29 (−0.20–0.79)

## [AC3C^7]N/OFQ-NH2 [Compound 36]
NOP receptor
  BIAS FACTOR: 0.40
  bias factor (CL95%), NOP: 0.40 (−0.11–0.90)

## [Ala^4]N/OFQ(1–13)-NH2 (FGGATGARKSARK-NH2) [Compound 4]
[1]
  NOP/G protein pEC50 (CL95%): Crc incomplete
  NOP/G protein CR (concentration ratio): ∼1000
[2]
  NOP/β-arrestin 2 pEC50 (CL95%): inactive

## C[C@H](NC(=O)[C@H](CO)NC(=O)[C@H](CCCCN)NC(=O)[C@H](CCCNC(=N)N)NC(=O)[C@@H](C)NC(=O)CNC(=O)[C@@H](NC(=O)[C@H](Cc1ccccc1)NC(=O)CNC(=O)CNC(=O)[C@@H](N)Cc1ccccc1)[C@@H](C)O)C(=O)N[C@@H](CCCNC(=N)N)C(=O)N[C@@H](CCCCN)C(N)=O [Compound 15, [DAla^7]N/OFQ(1–13)-NH2]
NOP receptor
  BIAS FACTOR: 0.21
  bias factor (CL95%), NOP: 0.21 (−0.28–0.70)

## C[C@H](NC(=O)CNC(=O)[C@@H](NC(=O)[C@H](Cc1ccccc1)NC(=O)CNC(=O)CNC(=O)[C@@H](N)CC1CCCCC1)[C@@H](C)O)C(=O)N[C@@H](CCCNC(=N)N)C(=O)N[C@@H](CCCCN)C(=O)N[C@@H](CO)C(=O)N[C@@H](C)C(=O)N[C@@H](CCCNC(=N)N)C(=O)N[C@@H](CCCCN)C(N)=O [Compound 22, [Cha^1]N/OFQ(1–13)-NH2]
[2]
  NOP/β-arrestin 2 α ± sem (intrinsic activity): 1.03 ± 0.05
NOP receptor
  BIAS FACTOR: 0.20
  bias factor (CL95%), NOP: 0.20 (−0.36–0.76)

## [Ala^1]N/OFQ(1–13)-NH2 (AGGFTGARKSARK-NH2) [Compound 1]
[1]
  NOP/G protein pEC50 (CL95%): Crc incomplete
  NOP/G protein CR (concentration ratio): ∼700
[2]
  NOP/β-arrestin 2 pEC50 (CL95%): inactive

## C[C@H](NC(=O)CNC(=O)[C@@H](NC(=O)[C@H](Cc1ccccc1)NC(=O)CNC(=O)CNC(=O)[C@@H](N)Cc1ccccc1)[C@@H](C)O)C(=O)N[C@@H](CCCNC(=N)N)C(=O)N[C@@H](CCCCN)C(=O)N[C@H](CO)C(=O)N[C@@H](C)C(=O)N[C@@H](CCCNC(=N)N)C(=O)N[C@@H](CCCCN)C(N)=O [Compound 18, [DSer^10]N/OFQ(1–13)-NH2]
NOP receptor
  BIAS FACTOR: -0.07
  bias factor (CL95%), NOP: –0.07 (−0.52–0.39)
